According to PubChem BioAssay (NCI):
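Cells were grown in 96-well plates and exposed to each compound for 48 hours at five concentrations; endpoints were interpolated linearly between bracketing concentrations, or set to the highest concentration if not reached. GI50 = concentration required for 50% inhibition of growth. TGI is the concentration that stops growth completely.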

Legend:
Test in all cases: NCI-60 cell line screen, 48 h
SF-295 CNS = test system: SF-295 CNS
UACC-257 melanoma = test system: UACC-257 melanoma
HCT-116 colon = test system: HCT-116 colon
SF-268 CNS = test system: SF-268 CNS
M14 melanoma = test system: M14 melanoma
SF-539 CNS = test system: SF-539 CNS
OVCAR-8 ovarian = test system: OVCAR-8 ovarian
OVCAR-4 ovarian = test system: OVCAR-4 ovarian
SNB-75 CNS = test system: SNB-75 CNS
K-562 leukemia = test system: K-562 leukemia
HL-60(TB) leukemia = test system: HL-60(TB) leukemia
HCT-15 colon = test system: HCT-15 colon
UACC-62 melanoma = test system: UACC-62 melanoma
TK-10 renal = test system: TK-10 renal
SNB-19 CNS = test system: SNB-19 CNS
NCI-H460 lung = test system: NCI-H460 lung
MDA-MB-435 = test system: MDA-MB-435
U251 CNS = test system: U251 CNS
T-47D breast = test system: T-47D breast
BT-549 breast = test system: BT-549 breast
OVCAR-3 ovarian = test system: OVCAR-3 ovarian
HS 578T breast = test system: HS 578T breast
LOX IMVI melanoma = test system: LOX IMVI melanoma
IGROV1 ovarian = test system: IGROV1 ovarian
786-0 renal = test system: 786-0 renal
CCRF-CEM leukemia = test system: CCRF-CEM leukemia
SK-OV-3 ovarian = test system: SK-OV-3 ovarian
NCI-H23 lung = test system: NCI-H23 lung
HT29 colon = test system: HT29 colon
PC-3 prostate = test system: PC-3 prostate
MALME-3M melanoma = test system: MALME-3M melanoma
SW-620 colon = test system: SW-620 colon
MCF7 breast = test system: MCF7 breast
NCI-H522 lung = test system: NCI-H522 lung
A549 NSCLC = test system: A549 NSCLC
MDA-MB-468 breast = test system: MDA-MB-468 breast
MOLT-4 leukemia = test system: MOLT-4 leukemia
ACHN renal = test system: ACHN renal
RXF 393 renal = test system: RXF 393 renal
SK-MEL-5 melanoma = test system: SK-MEL-5 melanoma
SK-MEL-28 melanoma = test system: SK-MEL-28 melanoma
NCI-H226 lung = test system: NCI-H226 lung
SK-MEL-2 melanoma = test system: SK-MEL-2 melanoma
HCC-2998 colon = test system: HCC-2998 colon
UO-31 renal = test system: UO-31 renal
RPMI-8226 leukemia = test system: RPMI-8226 leukemia
CAKI-1 renal = test system: CAKI-1 renal
MDA-MB-231 breast = test system: MDA-MB-231 breast
SN12C renal = test system: SN12C renal
EKVX NSCLC = test system: EKVX NSCLC
OVCAR-5 ovarian = test system: OVCAR-5 ovarian
SR leukemia = test system: SR leukemia
HOP-92 NSCLC = test system: HOP-92 NSCLC
A498 renal = test system: A498 renal
KM12 colon = test system: KM12 colon
HOP-62 NSCLC = test system: HOP-62 NSCLC
DU-145 prostate = test system: DU-145 prostate
COLO 205 colon = test system: COLO 205 colon

CC1=C(COCCOC(=O)c2ccc(S(=O)(=O)F)cc2)C2=C(C)C3(CC3)[C@@](C)(O)C(=O)C2=C1
GI50 (SF-295 CNS): 22.1 µM
TGI (SF-295 CNS): 51.6 µM
GI50 (UACC-257 melanoma): 17.7 µM
TGI (UACC-257 melanoma): 38.3 µM
GI50 (HCT-116 colon): 16.7 µM
TGI (HCT-116 colon): 32.4 µM
GI50 (SF-268 CNS): 26 µM
TGI (SF-268 CNS): 77.6 µM
GI50 (M14 melanoma): 18.9 µM
TGI (M14 melanoma): 36.9 µM
GI50 (SF-539 CNS): 17.7 µM
TGI (SF-539 CNS): 33.9 µM
GI50 (OVCAR-8 ovarian): 18.9 µM
TGI (OVCAR-8 ovarian): 40.1 µM
GI50 (OVCAR-4 ovarian): 20.1 µM
TGI (OVCAR-4 ovarian): 48.4 µM
GI50 (SNB-75 CNS): 16.3 µM
TGI (SNB-75 CNS): 49.7 µM
GI50 (K-562 leukemia): 25.8 µM
TGI (K-562 leukemia): 58.5 µM
GI50 (HL-60(TB) leukemia): 24.3 µM
TGI (HL-60(TB) leukemia): 55.1 µM
GI50 (HCT-15 colon): 20.8 µM
TGI (HCT-15 colon): 43.1 µM
GI50 (UACC-62 melanoma): 16.2 µM
TGI (UACC-62 melanoma): 30.2 µM
GI50 (TK-10 renal): 19.6 µM
TGI (TK-10 renal): 45.3 µM
GI50 (SNB-19 CNS): 17 µM
TGI (SNB-19 CNS): 32.5 µM
GI50 (NCI-H460 lung): 21.6 µM
TGI (NCI-H460 lung): 45.8 µM
GI50 (MDA-MB-435): 22.2 µM
TGI (MDA-MB-435): 52.2 µM
GI50 (U251 CNS): 18.1 µM
TGI (U251 CNS): 37.3 µM
GI50 (T-47D breast): 17.7 µM
TGI (T-47D breast): 40 µM
GI50 (BT-549 breast): 14.9 µM
TGI (BT-549 breast): 32.2 µM
GI50 (OVCAR-3 ovarian): 18.4 µM
TGI (OVCAR-3 ovarian): 34.7 µM
GI50 (HS 578T breast): 25.4 µM
TGI (HS 578T breast): 99.6 µM
GI50 (LOX IMVI melanoma): 17.8 µM
TGI (LOX IMVI melanoma): 34.6 µM
GI50 (IGROV1 ovarian): 17 µM
TGI (IGROV1 ovarian): 32.4 µM
GI50 (786-0 renal): 19 µM
TGI (786-0 renal): 42.3 µM
GI50 (CCRF-CEM leukemia): 21.4 µM
TGI (CCRF-CEM leukemia): 52.3 µM
GI50 (SK-OV-3 ovarian): 18.6 µM
TGI (SK-OV-3 ovarian): 39.5 µM
GI50 (NCI-H23 lung): 19.4 µM
TGI (NCI-H23 lung): 37.5 µM
GI50 (HT29 colon): 18.4 µM
TGI (HT29 colon): 35.9 µM
GI50 (PC-3 prostate): 19.8 µM
TGI (PC-3 prostate): 51.3 µM
GI50 (MALME-3M melanoma): 16 µM
TGI (MALME-3M melanoma): 30.8 µM
GI50 (SW-620 colon): 17.5 µM
TGI (SW-620 colon): 33.9 µM
GI50 (MCF7 breast): 27 µM
TGI (MCF7 breast): 91.2 µM
GI50 (NCI-H522 lung): 16 µM
TGI (NCI-H522 lung): 30.9 µM
GI50 (A549 NSCLC): 25.9 µM
TGI (A549 NSCLC): 80.8 µM
GI50 (MDA-MB-468 breast): 18.7 µM
TGI (MDA-MB-468 breast): 40.1 µM
GI50 (MOLT-4 leukemia): 26.3 µM
TGI (MOLT-4 leukemia): 72.3 µM
GI50 (ACHN renal): 21.7 µM
TGI (ACHN renal): 49.9 µM
GI50 (RXF 393 renal): 17.5 µM
TGI (RXF 393 renal): 34.8 µM
GI50 (SK-MEL-5 melanoma): 20 µM
TGI (SK-MEL-5 melanoma): 39.5 µM
GI50 (SK-MEL-28 melanoma): 16.2 µM
TGI (SK-MEL-28 melanoma): 30.1 µM
GI50 (NCI-H226 lung): 27.9 µM
TGI (NCI-H226 lung): 85.7 µM
GI50 (SK-MEL-2 melanoma): 17.9 µM
TGI (SK-MEL-2 melanoma): 35.3 µM
GI50 (HCC-2998 colon): 18.5 µM
TGI (HCC-2998 colon): 33.6 µM
GI50 (UO-31 renal): 17 µM
TGI (UO-31 renal): 44.8 µM
GI50 (RPMI-8226 leukemia): 26 µM
TGI (RPMI-8226 leukemia): 69.4 µM
GI50 (CAKI-1 renal): 16 µM
TGI (CAKI-1 renal): 32.5 µM
GI50 (MDA-MB-231 breast): 17.7 µM
TGI (MDA-MB-231 breast): 34.2 µM
GI50 (SN12C renal): 16.6 µM
TGI (SN12C renal): 30.4 µM
GI50 (EKVX NSCLC): 17.5 µM
TGI (EKVX NSCLC): 33.8 µM
GI50 (OVCAR-5 ovarian): 18.1 µM
TGI (OVCAR-5 ovarian): 36.6 µM
GI50 (SR leukemia): 22.5 µM
TGI (SR leukemia): 56.2 µM
GI50 (HOP-92 NSCLC): 16.6 µM
TGI (HOP-92 NSCLC): 42.2 µM
GI50 (A498 renal): 18.6 µM
TGI (A498 renal): 43.7 µM
GI50 (KM12 colon): 23.6 µM
TGI (KM12 colon): 53.8 µM
GI50 (HOP-62 NSCLC): 21.6 µM
TGI (HOP-62 NSCLC): 58.2 µM
GI50 (DU-145 prostate): 24.1 µM
TGI (DU-145 prostate): 57.2 µM
GI50 (COLO 205 colon): 19.6 µM
TGI (COLO 205 colon): 37.2 µM
